From the CheMixHub viscosity set

Experiment: xn = mol fraction of the nth substance listed
Settings: 101.33 kPa

CN1CCC[C@H]1c1cccnc1 + CCO
viscosity [mPa·s]
Settings	298.15 K	323.15 K
x1 = 0.0501	1.468	0.8557
x1 = 0.1104	1.756	1.03
x1 = 0.1524	1.941	1.123
x1 = 0.2923	2.477	1.376
x1 = 0.3425	2.652	1.482
x1 = 0.4474	3.004	1.703
x1 = 0.4676	3.008	1.764
x1 = 0.5898	3.224	1.784
x1 = 0.6839	3.497	1.88
x1 = 0.7725	3.564	1.961
x1 = 0.8957	3.801	2.026
x1 = 0.8976	3.803	2.026

COCC(C)OCC(C)O (stereo not drawn) + CCO
viscosity [mPa·s]
Settings	298.15 K	308.15 K	318.15 K
x1 = 0.05	1.237	1.014	0.84
x1 = 0.1	1.385	1.119	0.92
x1 = 0.1501	1.525	1.218	0.996
x1 = 0.2	1.661	1.32	1.073
x1 = 0.2501	1.803	1.421	1.148
x1 = 0.3	1.941	1.521	1.225
x1 = 0.35	2.081	1.623	1.301
x1 = 0.4001	2.216	1.723	1.379
x1 = 0.45	2.35	1.82	1.451
x1 = 0.5	2.485	1.916	1.525
x1 = 0.5497	2.616	2.006	1.594
x1 = 0.6	2.744	2.099	1.662
x1 = 0.6497	2.871	2.192	1.726
x1 = 0.7001	3.001	2.281	1.796
x1 = 0.75	3.125	2.365	1.857
x1 = 0.8001	3.241	2.449	1.922
x1 = 0.8497	3.359	2.531	1.979
x1 = 0.8996	3.472	2.61	2.036
x1 = 0.9498	3.579	2.686	2.09

OCCCl + CCO
viscosity [mPa·s]
Settings	x1 = 0.0955	x1 = 0.2589	x1 = 0.2902	x1 = 0.3931	x1 = 0.4925	x1 = 0.5932	x1 = 0.6938	x1 = 0.7947	x1 = 0.8984
298.15 K	1.086	1.262	1.302	1.45	1.61	1.798	2.001	2.222	2.538
303.15 K	0.987	1.14	1.174	1.306	1.447	1.601	1.772	1.958	2.197
308.15 K	0.897	1.034	1.065	1.179	1.297	1.432	1.579	1.735	1.932
